Measurements reported in patent US5004747A, “Isoquinolinones” (May & Baker Limited, priority 1988, dated 1991).

Molecular target: T1, rat hepatic microsomal HMG CoA reductase (Rattus norvegicus, UniProt P51639)
T1 construct: rat hepatic microsomal HMG CoA reductase; from tissue; host or cells: rat liver microsomes
T1 sequence (P51639 1-887): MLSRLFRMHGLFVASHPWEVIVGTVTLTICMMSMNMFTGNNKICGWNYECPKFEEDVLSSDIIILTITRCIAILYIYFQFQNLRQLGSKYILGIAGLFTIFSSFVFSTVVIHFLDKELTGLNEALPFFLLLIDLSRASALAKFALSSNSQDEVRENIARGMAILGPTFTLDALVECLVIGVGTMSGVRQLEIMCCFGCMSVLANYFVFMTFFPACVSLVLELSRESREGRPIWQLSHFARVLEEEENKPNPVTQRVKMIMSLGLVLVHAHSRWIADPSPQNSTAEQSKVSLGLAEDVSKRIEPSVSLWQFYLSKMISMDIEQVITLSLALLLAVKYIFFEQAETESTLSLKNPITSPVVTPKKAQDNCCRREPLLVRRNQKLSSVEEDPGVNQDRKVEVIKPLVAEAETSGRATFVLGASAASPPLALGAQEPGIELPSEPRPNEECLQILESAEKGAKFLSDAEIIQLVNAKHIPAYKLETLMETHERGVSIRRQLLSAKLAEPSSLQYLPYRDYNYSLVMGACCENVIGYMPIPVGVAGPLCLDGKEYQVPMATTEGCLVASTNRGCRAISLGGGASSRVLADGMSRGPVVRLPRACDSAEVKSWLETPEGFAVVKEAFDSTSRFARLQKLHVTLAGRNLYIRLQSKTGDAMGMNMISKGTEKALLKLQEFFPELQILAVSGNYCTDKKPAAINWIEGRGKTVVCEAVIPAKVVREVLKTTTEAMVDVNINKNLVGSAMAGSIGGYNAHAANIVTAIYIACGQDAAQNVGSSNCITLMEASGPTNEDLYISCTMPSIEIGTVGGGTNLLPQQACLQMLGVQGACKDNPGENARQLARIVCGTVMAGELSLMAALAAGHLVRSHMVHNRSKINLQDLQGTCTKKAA
Experiment: inhibition of rat hepatic microsomal HMG CoA reductase activity in vitro (Table I)
Assay type: biochemical
Conditions: for inhibition at 0.24 µg/mL: 0.24 micrograms/ml; for inhibition at 0.74 µg/mL: 0.74 micrograms/ml; for inhibition at 2.22 µg/mL: 2.22 micrograms/ml; for inhibition at 6.66 µg/mL: 6.66 micrograms/ml; for inhibition at 20 µg/mL: 20.0 micrograms/ml; for inhibition at 0.082 µg/mL: 0.082 micrograms/ml; for inhibition at 0.25 µg/mL: 0.25 micrograms/ml; for inhibition at 2 µg/mL: 2.0 micrograms/ml
Excerpt: In the table the concentrations of the test compounds are expressed in micrograms/ml.

| inhibition at 0.74 µg/mL | inhibition at 2.22 µg/mL | inhibition at 6.66 µg/mL | inhibition at 0.082 µg/mL | inhibition at 0.25 µg/mL | inhibition at 0.0824 µg/mL (0.0824 micrograms/ml) | Structure (SMILES) | inhibition at 0.24 µg/mL | inhibition at 20 µg/mL | inhibition at 0.0274 µg/mL (0.0274 micrograms/ml) | inhibition at 2 µg/mL |
| --- | --- | --- | --- | --- | --- | --- | --- | --- | --- | --- |
| 88% | 96% | 99% | 50% | 77% | – | CC(C)c1c(/C=C/[C@@H]2C[C@@H](O)CC(=O)O2)n(C2CCCCC2)c(=O)c2ccccc12 [Z, (4R,6S)-(E)-6-(2-(2-cyclohexyl-4-isopropyl-1-oxo-1,2-dihydroisoquinolin-3-yl)ethen-1-yl)-4-hydroxy-3,4,5,6-tetrahydro-2H-pyran-2-one] | – | – | – | – |
| 85% | 95% | 99% | 49% | 66% | – | CC(C)n1c(/C=C/[C@@H]2C[C@@H](O)CC(=O)O2)c(-c2ccc(F)cc2)c2ccccc2c1=O [H, (4R,6S)-(E)-4-hydroxy-6-[2-{4-(4-fluorophenyl)-2-isopropyl-1-oxo-1,2-dihydroisoquinolin-3-yl}-ethen-1-yl]-3,4,5,6-tetrahydro-2H-pyran-2-one] | – | 100% | – | – |
| – | – | – | – | – | – | Cn1c(/C=C/C(O)CC(O)CC(=O)O)c(-c2ccccc2)c2ccccc2c1=O (centres unmarked) [B, (E)-3,5-dihydroxy-7-(2-methyl-1-oxo-4-phenyl-1,2-dihydroisoquinolin-3-yl)hept-6-enoic acid] | – | 65% | – | 5% |
| – | – | – | – | – | – | Cn1c(/C=C/C(O)CC(O)CC(=O)O)c(-c2ccccc2)c2ccccc2c1=O (centres unmarked) [BA, sodium (E)-3,5-dihydroxy-7-(2-methyl-1-oxo-4-phenyl-1,2-dihydroisoquinolin-3-yl)hept-6-enoate] | – | 61% | – | 0% |
| 34% | 59% | 80% | – | 13% | 16% | COc1ccc(-n2c(/C=C/[C@@H]3C[C@@H](O)CC(=O)O3)c(C(C)C)c3ccccc3c2=O)cc1 [N, (4R,6S)-(E)-4-hydroxy-6-(2-(2-(4-methoxyphenyl)-4-isopropyl-1-oxo-1,2-dihydroisoquinolin-3-yl)ethen-1-yl)-3,4,5,6-tetrahydro-2H-pyran-2-one] | – | – | – | – |
| 61% | 83% | 92% | 16% | 35% | – | O=C1C[C@H](O)C[C@@H](/C=C/c2c(-c3ccc(F)cc3)c3ccccc3c(=O)n2CC2CC2)O1 [X, (4R,6S)-(E)-6-(2-(2-cyclopropylmethyl-4-(4-fluorophenyl)-1-oxo-1,2-dihydroisoquinolin-3-yl)ethen-1-yl)-4-hydroxy-3,4,5,6-tetrahydro-2H-pyran-2-one] | – | 96% | – | – |

| Structure (SMILES) | inhibition at 0.74 µg/mL | inhibition at 2.22 µg/mL | inhibition at 6.66 µg/mL | inhibition at 0.082 µg/mL | inhibition at 0.25 µg/mL | inhibition at 0.0824 µg/mL (0.0824 micrograms/ml) | inhibition at 0.24 µg/mL | inhibition at 20 µg/mL | inhibition at 0.0274 µg/mL (0.0274 micrograms/ml) | inhibition at 2 µg/mL |
| --- | --- | --- | --- | --- | --- | --- | --- | --- | --- | --- |
| CC(C)n1c(/C=C/C(O)CC(O)CC(=O)O)c(-c2ccc(F)cc2)c2ccccc2c1=O (centres unmarked) [Compound F, sodium (E)-3,5-dihydroxy-7-[4-(4-fluorophenyl)-2-isopropyl-1-oxo-1,2-dihydroisoquinolin-3-yl]hept-6-enoate] | 59% | 80% | 91% | – | – | – | 37% | 97% | – | – |
| CC(C)c1c(/C=C/[C@@H](O)C[C@@H](O)CC(=O)O)n(-c2ccc(F)cc2)c(=O)c2ccccc12 [AG, sodium (3R,5S)-(E)-3,5-dihydroxy-7-(2-(4-fluorophenyl)-4-isopropyl-1-oxo-1,2-dihydroisoquinolin-3-yl)hept-6-enoate] | 89% | 96% | – | 57% | 74% | – | – | – | 15% | – |
| CC(C)n1c(/C=C/C(O)CC(O)CC(=O)O)c(-c2ccc(F)cc2)c2ccccc2c1=O (centres unmarked) [Compound E, (E)-3,5-dihydroxy-7-[4-(4-fluorophenyl)-2-isopropyl-1-oxo-1,2-dihydroisoquinolin-3-yl]hept-6-enoic acid] | 28% | 61% | 82% | – | – | – | 15% | 94% | – | – |
